The values that follow come from US20050182129A1, “Hair growth tonic” (priority 2002, published 2005).

“Also recorded” adds a separate entry of the source.

Test [1] deals with WNT-5A mRNA. The test can be described thus: Activity of decreasing WNT-5A mRNA amount (QuantiGene bDNA method), Test Example 4. The class given is cell-based. The conditions noted are these: Homo sapiens, Human dermal papilla cell, 24 h, human dermal papilla cells, concentration at which the mRNA amount is halved, average of 2 wells. As for the experimental part:
(§1) Human dermal papilla cells, which were purchased from Toyobo, were cultured in MEM (Invitrogen) containing 12% FBS.
(§2) The dermal papilla cells in passage 5 were sowed in a 96-well plate to give a density of 1×10^4 cells/well and cultured overnight. Then, the medium was replaced by a medium to which no compound was added or a medium containing the compounds and the culture was continued for additional 24 hours. After the completion of the culture, WNT-5A or GAPDH mRNA amount was measured by using QuantiGene High Volume Kit (Bayer Medical) by the branched DNA (bDNA) signal amplification method (Drug Metabolism and Disposition, 28(5), 608-616 (2000)). In accordance with the protocol attached to QuantiGene High Volume Kit, cells were lysed by using Lysis Mixture and the lysis solution was added to capture plate. Next, a set of probes specific to WNT-5A or GPDH was added and allowed to react at 53° C. for 20 hours. After washing the plate by using 0.1×SSC containing 0.03% lauryl sulfate, an amplification probe comprising bDNA was added and allowed to react at 46° C. for 1 hour. After washing the plate, a labeling probe labeled with alkaline phosphatase was added and allowed to react at 46° C. for 1 hour. After washing the plate, a substrate Lumi-Phos Plus was added and allowed to react at 46° C. for 30 minutes. Then, the luminescence was measured by using WALLAC 1420ARVOsx.
The WNT-5A-specific probe set was designed based on the sequence of the coding region of human WNT-5A mRNA. As capture extenders (CEs), 10 probes (SEQ ID NOs:12 to 21) were used; as label extenders (LEs), 31 probes (SEQ ID NOs:22 to 52) were employed; and as blockers, […] (SEQ ID NOs:53 to 60) were employed.
(§3) The amounts of WNT-5A and GAPDH mRNAs are expressed in relative values (%) to the control case of adding of no compound and the concentration of a compound at which the mRNA amount is halved (IC50) is calculated as an index of WNT-5A mRNA decreasing activity of the corresponding compound.

A further test relates to GAPDH mRNA. The test can be described thus: GAPDH mRNA amount (QuantiGene bDNA method), Test Example 4. The class given is cell-based. The settings on record: Human dermal papilla cell; human dermal papilla cells, 24 hours, concentration at which the mRNA amount is halved, average of 2 wells. As to the method:
as §1, §2
As GAPDH-specific probe set, use was made of bDNA probe set for human GAPDH (XenoTech LLC, B0960).
as §3

Test [2] has as its system Human dermal papilla cells. The test can be described thus: Dermal papilla cell growth promoting activity (WST-1, spheroid culture), Test Example 5. The test is classed as cell-based. The conditions noted are these: for activity at 1 µM / activity at 4 µM / activity at 16 µM: Homo sapiens, Human dermal papilla cell, 72 hours, average of 3 wells, read-out: ΔO.D. 450 nm/620 nm (% of control). As for the experimental part: as §1
The dermal papilla cells in passage 5 were sowed in a 96-well plate for spheroid culture to give a density of 1.5×10^4 cells/well and cultured overnight. Then, the medium was replaced by a medium to which no compound was added or a medium containing the compound and the culture was continued for additional 72 hours. After the completion of the culture, cells were counted by using a Cell Counting Kit (Wako Pure Chemicals). Five hours before the completion of the culture, WST-1 reagent at 1/10 amount per medium was added to each medium and then the optical density (O.D. 450 nm/620 nm) of the medium was measured at the completion of the culture. A positive correlation was observed between the cell number and optical density within the range of 0.25 to 4×10^4 cells/well.
In this table, each numerical value means an average of 6 wells (control group) or 3 wells (test groups). To compare the control group to the test groups, Student's t-test was employed: • *:P<0.05, **:P<0.01, ***:P<0.001.
(In general: Tetrazolium assays rely on reduction of a dye to a coloured formazan, in cell work by metabolically active cells.)

Test [3] concerns WNT-5A mRNA. The test can be described thus: Decrease in WNT-5A mRNA in monkey skin organ culture (RT-PCR), Test Example 6. The class given is cell-based, Cynomolgus monkey (Macaca fascicularis). The settings on record: 40-cycle PCR, hair follicles, 11th day of culturing, FIG. 4. As for the experimental part: The dorsal skin of a Cynomolgus monkey (Macaca fascicularis) (male, 6 years old) was collected and divided into pieces (5 mm×8 mm) under a stereoscopic microscope. Then each skin tissue piece was cultured in William's Medium E (Invitrogen) to which no compound was added or Compound 7 or Compound 3 was added and which contained 10 μg/ml insulin (Sigma) and 10 ng/ml hydrocortisone (Kurabo).
On the 11th day of the culturing, hair follicles were separated from each skin tissue piece and total RNAs were extracted by using TRIzol reagent (Invitrogen). Using 200 ng portions of the total RNAs, 0.4 μM portions of primers specific to WNT-5A or glyceraldehyde3-phosphate dehydrogenase (GAPDH) [WNT-5A sense: AATGTCTTCCAAGTTCTTCCTAGTGGC (SEQ ID NO-8), WNT-5A antisense: GATGTCGGAATTGATACTGGCA (SEQ ID NO:9), GAPDH sense: ACCACAGTCC ATGCCATCAC (SEQ ID NO:10) and GAPDH antisense: TCCACCACCC TGTTGCTGTA (SEQ ID NO:11)] and SUPERSCRIPT One-Step RT-PCT with PLATINUM Taq (Invitrogen), RT-PCR was cared out in accordance with the protocol attached to SUPERSCRIPT One-Step RT-PCT with PLATINUM Taq. In brief, first strand synthesis was carried out at 50° C. for 30 minutes in a reaction system of 25 μl in total volume in accordance with the protocol attached to SUPERSCRIPT One-Step RT-PCT with PLATINUM Taq. […]

Test [4] has as its system hair follicles in monkey skin organ culture. The test can be described thus: Enlargement in hair bulb diameter in monkey skin organ culture, Test Example 8. The test is classed as cell-based, Cynomolgus monkey (Macaca fascicularis). The settings on record: culturing for 30 days, FIGS. 6 and 7. As for the experimental part: The dorsal skin of a Cynomolgus monkey (Macaca fascicularis) (male, 6 years old) was collected and divided into pieces (5 mm×8 mm) under a stereoscopic microscope. Then each skin tissue piece was cultured in William's Medium E (Invitrogen) to which no compound was added or Compound 7 or Compound 3 was added and which contained 10 μg/ml of insulin (Sigma) and 10 ng/ml of hydrocortisone (Kurabo).
On the 30th day of the culturing, all follicles contained in each skin tissue piece were separated and the diameter of bulbs was measured under a stereoscopic microscope.
FIGS. 6 and 7 show the results. In these figures, each numerical value means mean±S.E. of bulb diameters of all follicles contained in each skin tissue piece. To compare the control group with the test groups, Student's t-test was employed: • *:P<0.05.

Test [5] has as its system stumptailed macaque suffering from alopecia. Nature of the test: Hair growth test on stumptailed macaque, Test Example 9. The test is classed as in vivo, stumptailed macaque (Macaca arctoides). The conditions noted are these: lotion containing 0.3% compound. As to the method:
To the forehead of a stumptailed macaque (Macaca arctoides) (male, 14 years old) suffering from alopecia, 1 mL of a lotion containing 0.3% Compound 7 was applied once a day 5 times per week for 6 months. Before the initiation of the application, the alopecia site in the forehead was marked by tattoo. The skin part including the tattoo was photographed before the initiation of the application and after applying for 6 months.

A word on the IC50: it is the concentration at which inhibition is half-maximal. The compound `C[C@@H]1C[C@@H]2O[C@H]2CC/C=C/C(=O)Cc2c(Cl)c(O)cc(O)c2C(=O)O1` [Compound 3] came in with an IC50 with WNT-5A mRNA [1] of 3.16 µM. The compound also yielded an IC50 with GAPDH mRNA of 58 µM. Moreover, in test [2], the activity at 1 µM amounted to 92.9 ± 1.6%, the activity at 4 µM was found to be 92.9 ± 9.9% and the activity at 16 µM is 244 ± 33.4%. For the same compound, the “amplified WNT-5A cDNA fragment” value in the test on WNT-5A mRNA [3] was “remarkably decreased”. In addition, in test [4], the “average bulb diameter of the follicles vs control” value is listed as “significantly higher; also recorded: enlarges the hair bulb diameter”.

With `C[C@@H]1C[C@@H]2O[C@H]2CC/C=C/[C@H](O)Cc2c(Cl)c(O)cc(O)c2C(=O)O1` [Compound 7], 4.07 µM corresponded to half-maximal inhibition in the test with WNT-5A mRNA [1] (IC50). Moreover, in the test with GAPDH mRNA, the IC50 is over 120 µM. In test [2], the activity at 1 µM is 82.6 ± 3.9%, the activity at 4 µM came to 170 ± 10.4% and the activity at 16 µM was 195 ± 12.7%. The “growth of dermal papilla cells” value in test [2] (no concentration stated) is given as “excellent effect of promoting the growth”. In addition, the “amplified WNT-5A cDNA fragment” value with WNT-5A mRNA [3] is “remarkably decreased”. For the same compound, the “average bulb diameter of the follicles vs control” value in test [4] is “enlarges the hair bulb diameter; also recorded: significantly higher”. The “alopecia in the forehead” value in test [5] (1 mL once a day 5 times per week for 6 months, FIG. 8) is reported as “clearly ameliorated”. Besides, in test [5] (after applying for 6 months), the “thick terminal hairs” value is “increased” and the “vellus hairs” value was “decreased”.
